Results on 16 compounds are retold here after US11071731B2, “Allosteric modulators of the mu opioid receptor” (Chiromics, LLC, priority 2017, dated 2021).

The target in assay [1] is T1, mu opioid receptor (MOR) (Homo sapiens, UniProt P35372). The experiment in a line: Hit Hunter cAMP signaling assay (adenylyl cyclase inhibition), PAM mode with EC20 endomorphin-1. In kind it is cell-based.
Assay [2] addresses T1, mu opioid receptor (MOR). The experiment in a line: PathHunter β-arrestin recruitment assay, PAM mode with EC20 endomorphin-1. The format is cell-based. The following applies: for EC50: read-out: β-arr. EC50. Summed up: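 Enzyme fragment complementation read-out: β-gal ED fragment fused to receptor, EA fused to β-arrestin, recruitment restoring β-gal activity detected by chemiluminescence. EC50 and percent maximal response derived for each compound.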
(In general: Arrestin recruitment assays detect the binding of arrestin to an activated receptor.)

Setting [3] is: adenylyl cyclase inhibition, read-out: cAMP EC50.
[4] abbreviates: maximal response for adenylyl cyclase inhibition.
Setting [5] is: maximal response for β-arrestin recruitment.
[6] abbreviates: cAMP EC50, adenylyl cyclase inhibition.
The mark [7] stands for this setting: maximal response, adenylyl cyclase inhibition.
The mark [8] stands for this setting: maximal response, β-arrestin recruitment.

T1 sequence (P35372 whole entry, the tested form may be a part): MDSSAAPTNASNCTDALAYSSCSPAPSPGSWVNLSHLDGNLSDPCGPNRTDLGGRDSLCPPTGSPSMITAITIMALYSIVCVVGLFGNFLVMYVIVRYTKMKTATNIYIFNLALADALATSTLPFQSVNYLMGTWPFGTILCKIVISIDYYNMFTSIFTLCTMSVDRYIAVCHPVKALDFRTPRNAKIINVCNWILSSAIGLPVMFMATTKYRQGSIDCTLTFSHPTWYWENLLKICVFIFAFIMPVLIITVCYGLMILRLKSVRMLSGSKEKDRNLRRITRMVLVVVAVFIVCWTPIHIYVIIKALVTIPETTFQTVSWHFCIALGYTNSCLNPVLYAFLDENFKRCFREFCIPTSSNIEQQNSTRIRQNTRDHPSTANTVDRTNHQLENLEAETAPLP

For orientation: EC50 means the concentration needed to bring the measured effect to its halfway point. As for `O=S(=O)(Cc1ccc(Cl)cc1)N1CCCC(F)C1c1ccc(F)c(Br)c1` (centres unmarked) [Compound 33], the EC50 at mu opioid receptor (MOR) [1] (setting [3]) and on mu opioid receptor (MOR) [2] (β-arrestin recruitment) was above 2100 nM each time.
With `COc1ccc(C2CC(C(F)(F)F)CN2S(=O)(=O)c2ccc(Cl)cc2)cc1Br` (single isomer, unassigned) [Compound 120], the EC50 on mu opioid receptor (MOR) [1] (setting [3]) and at mu opioid receptor (MOR) [2] (β-arrestin recruitment) was above 2100 nM each time. At mu opioid receptor (MOR) [1] (setting [4]), the “cAMP Max. Resp.” value is reported as “F (F represents a maximal response of > 60%)”. For the same compound, on mu opioid receptor (MOR) [2] (setting [5]), the “β-arr Max. Resp.” value was “F (F represents a maximal response of > 60%)”.
As to `Fc1ccc(C2CC(F)(F)CCN2c2nc(Cl)ncc2F)cc1Br` (centres unmarked) [compound 246], the 50% effective concentration (EC50) at mu opioid receptor (MOR) [1] (setting [6]) and at mu opioid receptor (MOR) [2] (β-arrestin recruitment) was 700 to 2100 nM in each case. Besides, the “cAMP Max. Resp.” value on mu opioid receptor (MOR) [1] (setting [4]) is listed as “D (D represents a maximal response of < 40%)”. Besides, the “β-arr Max. Resp.” value at mu opioid receptor (MOR) [2] (setting [5]) is given as “F (F represents a maximal response of > 60%)”.
Turning to `Fc1cnc(Cl)nc1N1CCCCC1c1cnccc1C(F)(F)F` (centres unmarked) [compound 332], the EC50 on mu opioid receptor (MOR) [1] (setting [6]) and on mu opioid receptor (MOR) [2] (β-arrestin recruitment) was below 700 nM throughout. Further, at mu opioid receptor (MOR) [1] (setting [4]), the “cAMP Max. Resp.” value is on record as “D (D represents a maximal response of < 40%)”. Moreover, the “β-arr Max. Resp.” value at mu opioid receptor (MOR) [2] (setting [5]) is given as “D (D represents a maximal response of < 40%)”.
Consider `O=S(=O)(Cc1ccc(Cl)c(Cl)c1)N1C2CCC(C2)C1c1ccc(F)c(Br)c1` (centres unmarked) [Compound 181], for which the EC50 on mu opioid receptor (MOR) [1] (setting [3]) and on mu opioid receptor (MOR) [2] (β-arrestin recruitment) was above 2100 nM throughout. Further, the “cAMP Max. Resp.” value at mu opioid receptor (MOR) [1] (setting [4]) was “D (D represents a maximal response of < 40%)”. Also, the “β-arr Max. Resp.” value at mu opioid receptor (MOR) [2] (setting [5]) is on record as “E (E represents a maximal response of 40-60%)”.
Turning to `Fc1cnc(Cl)nc1N1CCCCC1c1ccc2cncn2c1` (centres unmarked) [compound 334], the EC50 at mu opioid receptor (MOR) [1] (setting [6]) and on mu opioid receptor (MOR) [2] (β-arrestin recruitment) was below 700 nM throughout. Further, the “cAMP Max. Resp.” value on mu opioid receptor (MOR) [1] (setting [4]) is on record as “D (D represents a maximal response of < 40%)”. In addition, at mu opioid receptor (MOR) [2] (setting [5]), the “β-arr Max. Resp.” value was “D (D represents a maximal response of < 40%)”.
Regarding `Fc1cnc(Cl)nc1N1CC(F)CC1c1cccc(C(F)(F)F)n1` (centres unmarked) [compound 481], the EC50 on mu opioid receptor (MOR) [1] (setting [3]) and on mu opioid receptor (MOR) [2] (β-arrestin recruitment) was above 2100 nM in each case. Also, the “cAMP Max. Resp.” value on mu opioid receptor (MOR) [1] (setting [7]) is given as “D (D represents a maximal response of < 40%)”. Moreover, on mu opioid receptor (MOR) [2] (setting [8]), the “β-arr Max. Resp.” value is given as “D (D represents a maximal response of < 40%)”.
On to `O=S(=O)(Cc1ccc(Cl)c(Cl)c1)N1CCCCC1c1cccc(C(F)(F)F)c1` (centres unmarked) [Compound 23], for which the EC50 at mu opioid receptor (MOR) [1] (setting [3]) and on mu opioid receptor (MOR) [2] (β-arrestin recruitment) was above 2100 nM each time. Also, the “cAMP Max. Resp.” value at mu opioid receptor (MOR) [1] (setting [4]) is given as “D (D represents a maximal response of < 40%)”. The “β-arr Max. Resp.” value at mu opioid receptor (MOR) [2] (setting [5]) is “F (F represents a maximal response of > 60%)”.
On to `Fc1cnc(Cl)nc1N1CCCCC1c1cnc2cccnn12` (centres unmarked) [compound 337], for which the EC50 on mu opioid receptor (MOR) [1] (setting [6]) and at mu opioid receptor (MOR) [2] (β-arrestin recruitment) was below 700 nM each time. Further, the “cAMP Max. Resp.” value on mu opioid receptor (MOR) [1] (setting [4]) is “D (D represents a maximal response of < 40%)”. Also, the “β-arr Max. Resp.” value on mu opioid receptor (MOR) [2] (setting [5]) is given as “D (D represents a maximal response of < 40%)”.
For `Fc1ccc(C2CCCCN2c2nc(Cl)ncc2F)cc1Cl` (single isomer, unassigned) [compound 343], the EC50 on mu opioid receptor (MOR) [1] (setting [3]) and at mu opioid receptor (MOR) [2] (β-arrestin recruitment) was below 700 nM each time. Further, at mu opioid receptor (MOR) [1] (setting [4]), the “cAMP Max. Resp.” value is reported as “D (D represents a maximal response of < 40%)”. The “β-arr Max. Resp.” value at mu opioid receptor (MOR) [2] (setting [5]) is listed as “D (D represents a maximal response of < 40%)”.
As to `FC(F)(F)c1ccc(N2CCCCC2c2cccc(C(F)(F)F)n2)cc1` (centres unmarked) [compound 452], the EC50 on mu opioid receptor (MOR) [1] (setting [6]) and on mu opioid receptor (MOR) [2] (β-arrestin recruitment) was above 2100 nM in each case. Besides, on mu opioid receptor (MOR) [1] (setting [7]), the “cAMP Max. Resp.” value is on record as “D (D represents a maximal response of < 40%)”. In addition, the “β-arr Max. Resp.” value on mu opioid receptor (MOR) [2] (setting [8]) is given as “E (E represents a maximal response of 40-60%)”.
For `CC1CCN(S(=O)(=O)c2ccc(Cl)cc2)C1c1ccc(F)c(C#N)c1` (mixture of isomers) [Compound 93], the EC50 at mu opioid receptor (MOR) [1] (setting [3]) was above 2100 nM; on mu opioid receptor (MOR) [2] (β-arrestin recruitment) it was 700 to 2100 nM. Further, on mu opioid receptor (MOR) [1] (setting [4]), the “cAMP Max. Resp.” value is “D (D represents a maximal response of < 40%)”. For the same compound, the “β-arr Max. Resp.” value at mu opioid receptor (MOR) [2] (setting [5]) is “E (E represents a maximal response of 40-60%)”.
Turning to `O=S(=O)(Cc1ccccc1Cl)N1CCCCC1c1cccc(C(F)(F)F)c1` (centres unmarked) [Compound 24], the EC50 at mu opioid receptor (MOR) [1] (setting [3]) and on mu opioid receptor (MOR) [2] (β-arrestin recruitment) was above 2100 nM throughout. Further, the “cAMP Max. Resp.” value on mu opioid receptor (MOR) [1] (setting [4]) is on record as “D (D represents a maximal response of < 40%)”. In addition, at mu opioid receptor (MOR) [2] (setting [5]), the “β-arr Max. Resp.” value is given as “F (F represents a maximal response of > 60%)”.
As to `FC(F)(F)c1cccc(C2CCCCN2Cc2cncc(Cl)c2)n1` (centres unmarked) [compound 143], the EC50 at mu opioid receptor (MOR) [1] (setting [6]) and at mu opioid receptor (MOR) [2] (β-arrestin recruitment) was above 2100 nM each time. At mu opioid receptor (MOR) [1] (setting [4]), the “cAMP Max. Resp.” value is “D (D represents a maximal response of < 40%)”. Further, the “β-arr Max. Resp.” value on mu opioid receptor (MOR) [2] (setting [5]) is on record as “D (D represents a maximal response of < 40%)”.
Regarding `CN(C)c1cccc(C2CCCCN2c2nc(N(C)C)ncc2F)n1` (centres unmarked) [compound 243], the EC50 on mu opioid receptor (MOR) [1] (setting [6]) and on mu opioid receptor (MOR) [2] (β-arrestin recruitment) was above 2100 nM in each case. Also, the “cAMP Max. Resp.” value at mu opioid receptor (MOR) [1] (setting [4]) was “E (E represents a maximal response of 40-60%)”. Besides, the “β-arr Max. Resp.” value at mu opioid receptor (MOR) [2] (setting [5]) is given as “F (F represents a maximal response of > 60%)”.
As for `Fc1cc(Cl)cc(CN2CCCCC2c2ccc(F)c(Cl)c2)c1` (centres unmarked) [compound 155], the EC50 on mu opioid receptor (MOR) [1] (setting [6]) and on mu opioid receptor (MOR) [2] (β-arrestin recruitment) was 700 to 2100 nM in each case. The “cAMP Max. Resp.” value at mu opioid receptor (MOR) [1] (setting [4]) was “D (D represents a maximal response of < 40%)”. The “β-arr Max. Resp.” value on mu opioid receptor (MOR) [2] (setting [5]) is given as “F (F represents a maximal response of > 60%)”.
